The text below walks through data of ChEMBL document CHEMBL1201862, “PubChem BioAssay data set” (2004).

The source made the active and inactive calls.

Assay type in all cases: functional
A short description of assay [1]: Luminescence Cell-Based Dose Retest to Confirm Inhibitors of Cancer Stem Cells. [Related pubchem assays (depositor defined):AID2717, AID2721]. Conditions: Homo sapiens.
Assay [2] can be described thus: Luminescence Cell-Based Dose Response HTS to Identify Activators of Luciferase Translation or Activity in H4 […] Cells. [Related pubchem assays: 1829 (Project Summary), 1814 (Primary HTS)].
For the next assay, the system named is H4. Description: Luminescence Cell-Based Dose Response HTS to Identify Activators of 5'UTR Stem-Loop Driven Prion Protein mRNA Translation in H4 Neuroglioblastoma Cells. [Related pubchem assays: 1829 (Project Summary), 1814 (Primary HTS)]. As to conditions: Homo sapiens.
In another assay the test system is P388. Description: cells. Conditions: Mus musculus.
The next assay relates to P388/ADR. As to the kind of experiment: cells. Conditions: Mus musculus.
In another assay the test system is SN12K1. As to the kind of experiment: cells. As to conditions: Homo sapiens.
In assay [3] the target is T1, Corticotropin-releasing factor receptor 2/Corticotropin-releasing factor-binding protein (Homo sapiens, UniProt P24387+Q13324).
T1 sequence (Q13324 whole entry): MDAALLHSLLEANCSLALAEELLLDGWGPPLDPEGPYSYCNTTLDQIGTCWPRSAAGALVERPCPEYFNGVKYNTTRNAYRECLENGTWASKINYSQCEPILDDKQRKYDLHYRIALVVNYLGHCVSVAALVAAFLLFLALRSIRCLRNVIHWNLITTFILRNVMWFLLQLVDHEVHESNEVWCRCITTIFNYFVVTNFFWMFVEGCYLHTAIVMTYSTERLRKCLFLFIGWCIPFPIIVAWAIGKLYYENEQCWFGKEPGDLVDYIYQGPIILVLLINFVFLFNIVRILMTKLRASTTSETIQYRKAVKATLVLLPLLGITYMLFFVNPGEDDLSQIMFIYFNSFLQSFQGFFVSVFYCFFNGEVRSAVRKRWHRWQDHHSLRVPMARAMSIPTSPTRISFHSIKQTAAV
T1 sequence (P24387 whole entry): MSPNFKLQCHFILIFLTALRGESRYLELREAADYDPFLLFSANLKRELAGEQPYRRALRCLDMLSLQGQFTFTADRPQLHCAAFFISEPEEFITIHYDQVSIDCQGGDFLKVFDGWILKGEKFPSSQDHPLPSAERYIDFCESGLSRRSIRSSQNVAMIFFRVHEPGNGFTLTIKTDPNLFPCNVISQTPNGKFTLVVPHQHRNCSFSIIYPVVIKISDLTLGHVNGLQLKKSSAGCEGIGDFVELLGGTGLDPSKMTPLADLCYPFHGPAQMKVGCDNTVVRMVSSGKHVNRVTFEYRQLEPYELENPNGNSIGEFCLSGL
As to the kind of experiment: activators of CRF receptor 2 with binding protein – uHTS hits, confirmation (AID 602473). As to conditions: read-out: EC50_Mean.

For assay [4], the target named is T1, Corticotropin-releasing factor receptor 2/Corticotropin-releasing factor-binding protein. As to the kind of experiment: Dose Response confirmation of uHTS hits for small molecule antagonists of the CRF-binding protein and CRF-R2 receptor complex. Conditions: read-out: IC50_Mean.
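Throughout, for AC50: cells exposed to compound for roughly 70 hours or longer before luminescence read.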

`C/C(NC(=O)c1cccc(F)c1)=C1/C(=O)C[C@@H]2[C@H]1C2(C)C`: the AC50 in assay [1] is 1.24 µM (active). Further, the EC50 in assay [2] was 29.7 µM (active); in the assay on H4 it was 17.8 µM (active).

With `Cc1c2cc[n+](Cc3ccc(I)cc3)cc2c(C)c2c1[nH]c1ccccc12`, the GI50 in the assay with P388 is 0.1 µM (active); with P388/ADR, 17.9 µM (inactive); in the assay with SN12K1 it was 0.208 µM (active).

Turning to `CC(NCCS(=O)(=O)O)C(=O)O` (configuration not stated), the GI50 with P388, in the assay on P388/ADR and in the assay on SN12K1 was > 100 µM (inactive) in each case.

For the molecule `CC(C)N(C(=O)[C@H]1C[C@H](CC(=O)NCc2ccco2)C(=O)N2CCc3c([nH]c4cc(CCC(=O)N(C)C)ccc34)[C@]12C)C(C)C`, in assay [3], the EC50 is > 53 µM (inactive). Moreover, the IC50 in assay [4] is > 47.1 µM (inactive).

Turning to `CSc1ccccc1NC(=O)c1cc(CC(C)C)on1`, the EC50 in assay [3] is > 53 µM (inactive). In addition, the IC50 in assay [4] is > 47.1 µM (inactive).

For `O=C(COc1ccc(S(=O)(=O)NC2CCCCC2)cc1Cl)NCc1cccnc1`, the EC50 in assay [3] was > 53 µM (inactive). In addition, the IC50 in assay [4] is > 47.1 µM (inactive).

Take `CO[C@H]1C[C@@H]2CC[C@@H](C)[C@@](O)(O2)C(=O)C(=O)N2CCCC[C@H]2C(=O)O[C@H]([C@H](C)C[C@@H]2CC[C@@H](O)[C@H](OC)C2)CC(=O)[C@H](C)C=C(C)[C@@H](O)[C@@H](OC)C(=O)[C@H](C)C[C@H](C)/C=C/C=C/C=C1C`: the GI50 in the assay on P388 and with SN12K1 was 0.1 µM (active) throughout.

Turning to `Cc1c2cc[n+](C)c(C)c2cc2c1[nH]c1ccccc12`, the GI50 is 4.5 µM (inactive) in the assay on P388, > 100 µM (inactive) in the assay on P388/ADR and 2.21 µM (inactive) in the assay on SN12K1.

Take `Cc1ccc(C(=O)N(Cc2sccc2C)C2CCS(=O)(=O)C2)cc1` (configuration not stated): the EC50 in assay [3] was > 53 µM (inactive). Also, the IC50 in assay [4] is > 47.1 µM (inactive).

`CC1(Cc2ccc3c(c2)OCO3)NC(=O)NC1=O` (configuration not stated): the EC50 in assay [3] was > 53 µM (inactive). For the same molecule, the IC50 in assay [4] was > 47.1 µM (inactive).

As to `COc1ccc(Cl)cc1C(=O)NNC(=O)COC(=O)c1cccs1`, the EC50 in assay [3] was > 53 µM (inactive). Besides, the IC50 in assay [4] is > 47.1 µM (inactive).

For `Cc1cccc2nc3c(C(=O)NCCN(C)C)cccc3cc12`, the GI50 was 0.292 µM (active) with P388, 0.474 µM (active) in the assay on P388/ADR and 0.711 µM (active) in the assay on SN12K1.

As for `Cc1cc([N+](=O)[O-])c2ccccc2c1NS(=O)(=O)c1ccccc1`, the EC50 in assay [3] is > 53 µM (inactive). Besides, the IC50 in assay [4] is > 47.1 µM (inactive).

As for `Nc1ncc(CN2CCCC2)c(-c2ccccc2O)n1`, the GI50 in the assay with P388 and in the assay with SN12K1 was > 100 µM (inactive) in each case.

For the molecule `O=C(NCCCCCCNC(=O)N1CCCCCC1)N1CCCCCC1`, the EC50 in assay [3] is > 53 µM (inactive). Further, the IC50 in assay [4] was > 47.1 µM (inactive).

Consider `Cc1cccnc1N=C(S)NCCc1ccccc1`, for which the EC50 is 21.7 µM (active) in assay [2] and 12.9 µM (inconclusive) in the assay on H4.

For `COc1cccc(CN2CCN(c3cccc(C(F)(F)F)c3)CC2)c1OC`, in assay [3], the EC50 was > 53 µM (inactive). For the same molecule, in assay [4], the IC50 was > 47.1 µM (inactive).

In the case of `Cc1cc(=O)n2nc(N3CCC(C(=O)Nc4c(F)c(F)c(F)c(F)c4F)CC3)sc2n1`, in assay [3], the EC50 was > 53 µM (inactive). For the same molecule, the IC50 in assay [4] was > 47.1 µM (inactive).

For the molecule `O=C(Nc1ccccc1)c1cc2n(n1)C(C(F)(F)F)CC(C1CC1)N2` (configuration not stated), the EC50 in assay [2] is 5.46 µM (active); in the assay on H4 it was > 120 µM (not active).

Regarding `O=C(CCCc1ccccc1)Nc1nncs1`, the EC50 in assay [3] is > 53 µM (inactive). Also, the IC50 in assay [4] was > 47.1 µM (inactive).

With `COc1ccc(C2C(C)C(=O)C(C)C(c3ccc(OC)cc3)N2N=O)cc1` (configuration not stated), the GI50 in the assay on P388/ADR is > 100 µM (inactive); with SN12K1 it was 55.2 µM (inactive).
